According to patent US20240132431A1, “METHOD FOR ALKYLATING ACIDIC FUNCTIONAL GROUP” (Chugai Seiyaku Kabushiki Kaisha, priority 2021, published 2024):

Target: T1, Bcl-2 protein (Recombinant Human Bcl-2 Protein) (Homo sapiens, UniProt P10415)
T1 construct: purchased Novus NBP2-34889
Assay: Binding evaluation of mixture library compounds to Bcl-2 using AS-MS (affinity selection mass spectrometry)
Details: AS-MS on the mixture of 1200 library compounds, ASMS Ratio(%)=(A−C)/B×100; for ASMS ratio (%) n = 1: replicate n = 1; for ASMS ratio (%) n = 2: replicate n = 2
Summary of the method: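 Pooled library of ~1200 compounds ([…] each, final) incubated with recombinant human Bcl-2 (20 μM final) in Tris-HCl pH 7.4, NaCl, Tween-20, DTT buffer, dark, 23° C., 1 h. Bound fraction recovered by SEC spin column, organic extraction, reversed-phase LC/MS. ASMS Ratio (%) = (A−C)/B×100 versus protein-free standard and SEC blank.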

T1 sequence (P10415 whole entry): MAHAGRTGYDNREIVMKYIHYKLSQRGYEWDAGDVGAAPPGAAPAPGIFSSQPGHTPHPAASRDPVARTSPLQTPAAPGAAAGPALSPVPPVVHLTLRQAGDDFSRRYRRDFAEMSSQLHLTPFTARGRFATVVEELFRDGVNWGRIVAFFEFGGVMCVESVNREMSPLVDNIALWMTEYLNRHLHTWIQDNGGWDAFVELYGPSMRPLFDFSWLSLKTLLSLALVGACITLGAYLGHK

SMILES | ASMS ratio (%) n = 1 [%] | ASMS ratio (%) n = 2 [%]
CCOc1cccc(-c2ccc(C(=O)N3CCN(c4ccc(C(=O)N(C)CC56CC7CC(CC(C7)C5)C6)nn4)CC3)cc2F)c1 [B3A005-01, N-(1-Adamantylmethyl)-6-[4-[4-(3-ethoxyphenyl)-3-fluorobenzoyl]piperazin-1-yl]-N-methylpyridazine-3-carboxamide] | −1.5 | −4.8
CCOc1cncc(-c2ccc(C(=O)N3CCN(c4ccc(C(=O)N(C)CC56CC7CC(CC(C7)C5)C6)nn4)CC3)cc2F)c1 [B3A006-01, N-(1-Adamantylmethyl)-6-[4-[4-(5-ethoxypyridin-3-yl)-3-fluorobenzoyl]piperazin-1-yl]-N-methylpyridazine-3-carboxamide] | 0.0 | 0.0
CCOc1cccc(C#Cc2ccccc2C(=O)N2CCN(c3ccc(C(=O)N(C)CC45CC6CC(CC(C6)C4)C5)nn3)CC2)c1 [B3A007-01, N-(1-Adamantylmethyl)-6-[4-[2-[2-(3-ethoxyphenyl)ethynyl]benzoyl]piperazin-1-yl]-N-methylpyridazine-3-carboxamide] | 9.1 | −5.1
CCOc1cncc(C#Cc2ccccc2C(=O)N2CCN(c3ccc(C(=O)N(C)CC45CC6CC(CC(C6)C4)C5)nn3)CC2)c1 [B3A008-01, N-(1-Adamantylmethyl)-6-[4-[2-[2-(5-ethoxypyridin-3-yl)ethynyl]benzoyl]piperazin-1-yl]-N-methylpyridazine-3-carboxamide] | 0.6 | −0.3
CCOc1cccc(C#Cc2cncc(C(=O)N3CCN(c4ccc(C(=O)N(C)CC56CC7CC(CC(C7)C5)C6)nn4)CC3)c2)c1 [B3A009-01, N-(1-Adamantylmethyl)-6-[4-[5-[2-(3-ethoxyphenyl)ethynyl]pyridine-3-carbonyl]piperazin-1-yl]-N-methylpyridazine-3-carboxamide] | 0.6 | −0.3
CCOc1cncc(C#Cc2cncc(C(=O)N3CCN(c4ccc(C(=O)N(C)CC56CC7CC(CC(C7)C5)C6)nn4)CC3)c2)c1 [B3A010-01, N-(1-Adamantylmethyl)-6-[4-[5-[2-(5-ethoxypyridin-3-yl)ethynyl]pyridine-3-carbonyl]piperazin-1-yl]-N-methylpyridazine-3-carboxamide] | 0.0 | 0.0
CCOc1cccc(-c2ccccc2CCC(=O)N2CCN(c3ccc(C(=O)N(C)CC45CC6CC(CC(C6)C4)C5)nn3)CC2)c1 [B3A011-01, N-(1-Adamantylmethyl)-6-[4-[3-[2-(3-ethoxyphenyl)phenyl]propanoyl]piperazin-1-yl]-N-methylpyridazine-3-carboxamide] | 4.5 | 2.0
CCOc1cncc(-c2ccccc2CCC(=O)N2CCN(c3ccc(C(=O)N(C)CC45CC6CC(CC(C6)C4)C5)nn3)CC2)c1 [B3A012-01, N-(1-Adamantylmethyl)-6-[4-[3-[2-(5-ethoxypyridin-3-yl)phenyl]propanoyl]piperazin-1-yl]-N-methylpyridazine-3-carboxamide] | 1.4 | −2.7
CCOc1cccc(-c2ccc(C(=O)N3CCN(c4ccc(C(=O)N(C)CC56CC7CC(CC(C7)C5)C6)nn4)CC3)c3ccccc23)c1 [B3A013-01, N-(1-Adamantylmethyl)-6-[4-[4-(3-ethoxyphenyl)naphthalene-1-carbonyl]piperazin-1-yl]-N-methylpyridazine-3-carboxamide] | 10.2 | −20.0
CCOc1cncc(-c2ccc(C(=O)N3CCN(c4ccc(C(=O)N(C)CC56CC7CC(CC(C7)C5)C6)nn4)CC3)c3ccccc23)c1 [B3A014-01, N-(1-Adamantylmethyl)-6-[4-[4-(5-ethoxypyridin-3-yl)naphthalene-1-carbonyl]piperazin-1-yl]-N-methylpyridazine-3-carboxamide] | 0.6 | 0.8
